Experiments:
[1] = test system: PBMC of subjects previously immunized with MMR-II vaccine; assay: IFN-γ supernatant cytokine response (ELISA) to measles virus and synthetic measles peptides; assay type: cell-based, human; details: for Median secretion value IFN-γ: stimulated minus control cells
Protocol: (§1) To evaluate the immunogenicity of measles-derived peptides, 281 of these subjects (age 12 to 18 years) were studied.
(§2) Cryopreserved PBMC were used to measure cytokine responses to measles-derived peptides. We thawed cryopreserved PBMC at a concentration of 1×10^7 cells/mL using standard protocol. The vials were rapidly thawed in a 37° C. water bath and then washed twice with 10× volume of complete RPMI 1640 media supplemented with 10% FCS at 700 rpm for 5 minutes. The final cell pellet was resuspended in complete RPMI media containing penicillin-streptomycin (100 U/mL) and supplemented with 5% normal human AB sera (Ervin Sci., Santa Ana, Calif.). For IFN-γ determination, thawed PBMC were cultured at a concentration of 2×10^5 in RPMI containing 5% normal human AB sera with or without measles peptides (10 μg/well) and MV (positive control) at a moi of 0.5 for 6 days. For IL-4 determination in cell culture supernatants, we cultured thawed PBMC at a concentration of 4×10^5 in RPMI media, supplemented with 5% normal human AB sera. Cells were cultured in the presence of 2 μg/mL of IL-4 receptor antibody (R&D Systems, Minneapolis, Minn.) (Ekerfelt, et al., J. Immunol. Methods 260:55-67, 2002) with or without synthetic measles-derived peptides (10 μg/well) and MV (positive control) at a moi of 0.1 for 6 days. Cell culture supernatants were collected in a volume of 150 μl/well for both IFN-γ and IL-4 and were frozen at […] until assayed. The culture supernatants were assayed using a standard ELISA protocol (OptiEtA Human IFN-γ and IL-4, PharMingen, San Diego, Calif.) at a dilution of 1:1 in PBS containing 10% FCS. ELISA plates (Immulon-4, DYNEX Technologies Inc, Chantilly, Va.) were coated with capture IFN-γ or IL-4 mAb and incubated overnight at 4° C. The antibody-coated plates were incubated with diluted supernatant samples for 2 hours at room temperature followed by incubation with biotinylated mouse anti-human IFN-γor IL-4 conjugated to avidin-horseradish peroxidase for 1 hour at room temperature. The absorbance of the product was read using a microplate reader (Molecular Devices, Sunnyvale, Calif.) at 450 nm. The IFN-γ and IL-4 concentration of test samples was calculated by reference to the standard curve. Unstimulated and MV-stimulated secretion measurements for IFN-γ were performed in triplicate, while all other secretion measurements for both IFN-γ and IL-4 were performed in duplicate. Individual-specific values were then summarized by taking means of the duplicate or triplicate values. Mean background levels of IFN-γ and IL-4 cytokine production in cultures not stimulated with measles peptides or MV was subtracted from the mean antigen-induced responses to produce “corrected” secretion values. Negative corrected values indicate that the unstimulated secretion levels were, on average, higher than the stimulated secretion levels.
(§3) Two criteria were established to define positive responses for secreted IFN-γ and IL-4 cytokines using ELISA.

[2] = test system: PBMC of subjects previously immunized with MMR-II vaccine; assay: IL-4 supernatant cytokine response (ELISA) to measles virus and synthetic measles peptides; assay type: cell-based, human; details: for Median secretion value IL-4: stimulated minus control cells
Protocol: as §1, §2, §3

[3] = test system: PBMC from subjects previously immunized with MMR-II vaccine; assay: T cell proliferation assay ([3H]-thymidine, 3 days, SI cut point 3.0), Example 1; assay type: cell-based, human
Description: Study participants included ninety-five healthy residents of Olmsted County, Minn., aged 11 to 18 years. […] Mononuclear leukocytes were isolated by Ficoll-Hypaque (Amersham) density gradient centrifugation.
For descriptive analyses, we used medians and ranges for continuous variables and frequencies for categorical variables. We compared cpm for MV-stimulated, MV-P1-stimulated and MV-P2-stimulated cells with unstimulated cells using Wilcoxon signed rank tests. Associations between the continuously distributed stimulation indices for MV-P1, MV-P2 peptides, and MV were determined using Spearman rank correlation coefficients. Stimulation indices were subsequently dichotomized into positive or negative using a cut point of 3.0. We then compared MV positivity with MV-P1 and MV-P2 positivity using estimates of sensitivity.

[4] = test system: PBMC of subjects previously immunized with MMR-II vaccine; assay: T cell proliferation assay ([3H]-thymidine, 4 days, SI>2 positive), Example 3; details: for subjects with stimulation index greater than 2 (positive lymphoproliferative response) / stimulation index, median / stimulation index, range: 131 subjects (MV-P2 130, MV-F 43); for stimulation index, median / stimulation index, range: peptides 20 μg/ml, MV 50 pfu/ml, 4 days
Protocol: Briefly, study participants were enrolled as part of a larger stratified random sample study to assess associations between HLA genes and immune response to measles-mumps-rubella-II (MMR-II) vaccine in healthy, school-age children and young adults (ages 12 to 18 years). To evaluate the cellular responses to measles peptides, 131 subjects were used. In addition, a random subset of 43 individuals was tested for reactivity to a control measles fusion (F) peptide. All enrolled subjects had been previously immunized with two doses of MMR-II vaccine (Merck Research, West Point, Pa.) containing the attenuated Edmonston strain of MV. All but four of these participants were Caucasian and all subjects resided in a geographic area where no wild-type MV had circulated in the community during the subjects' lifetimes.
In brief, peripheral blood mononuclear cells (PBMC) were separated from heparinized blood by Ficoll-Hypaque (Sigma, St. Louis, Mo.) density gradient centrifugation and washed in RPMI 1640 medium (Celox Laboratories, Inc., St. Paul, Minn.) supplemented with 2 mM L-glutamine, 100 μg/ml streptomycin, 100 U/ml penicillin and 8% fetal calf serum (Life Technologies, Gaithersburg, Md.). Measles virus, MV-P1, MV-P2, and MV-F specific T cell responses were measures by proliferation of PBMC (2×10^5) incubated in RPMI-1640 medium, supplemented with 5% autologous sera, with live attenuated MV (50 pfu/ml, positive control) or synthetic peptides (20 μg/ml) compared to unstimulated cell control wells. Phytohemagglutinin (PHA, 5 μg/ml) was used to assess cell vitality. Only assays in which PBMC responded to PHA were accepted. T lymphocyte proliferation was measured after 4 days by [^3H]-tritiated thymidine uptake. Cells were then harvested onto glass fiber filters, using a 96-well harvesting system (Skatron Instruments, Norway). The amount of incorporated radioactivity was determined by a liquid scintillation counter (Packard Instrument Company, Boston, Mass.). We used six replicates of counts per minute (cpm) values for unstimulated cells, and three replicates each for T cells stimulated with peptides and live measles vaccine. For each subject, median cpm were calculated for unstimulated cells, as well as for cells stimulated with MV-P1, MV-P2, MV-F and measles. Results were then expressed as antigen-specific stimulation indices (SI), defined as the ratio of the median cpm of antigen-stimulated wells to the median cpm of unstimulated control wells. […] SI>2 was arbitrarily selected prior to the study as an indication of the presence of reactive peptide specific memory T cells, and SI<2 as an indicator of the lack of memory T lymphocytes to measles-derived peptides (Pauksen, et al., Bone Marrow Transplant 20:317-323, 1997).
Three outcomes were of primary interest: T cell proliferation (as measured by stimulation indices) induced separately by live MV, the MV-P1 peptide, and the MV-P2 peptide variant. Data were descriptively summarized using frequencies and percentages for all categorical variables, and medians and ranges for all continuous variables.

[5] = 281 subjects, stimulated cells minus unstimulated cells
[6] = 95 subjects, peptides 20 μg/ml, MV 50 PFU/well

Molecule: SAGKVSSTLASELG [MV-N]
- IFN-γ % Response (>20 pg/mL) ([1]; 281 subjects, peptides 10 μg/well, MV moi 0.5, 6 days): 15.3%
- IFN-γ Median level [1, 5]: 1.9 pg/mL
- Median secretion value IFN-γ ([1]; All other HLA-DRB1 alleles): 4.1 pg/mL
- Median secretion value IFN-γ ([1]; HLA-DRB1 allele *0101): -1.8 pg/mL
- Median secretion value IFN-γ ([1]; HLA-DRB1 allele *0102): 7.6 pg/mL
- Median secretion value IFN-γ ([1]; HLA-DRB1 allele *0103): 2.4 pg/mL
- Median secretion value IFN-γ ([1]; HLA-DRB1 allele *0301): 1.8 pg/mL
- Median secretion value IFN-γ ([1]; HLA-DRB1 allele *0401): -0.7 pg/mL
- Median secretion value IFN-γ ([1]; HLA-DRB1 allele *0402): 10.6 pg/mL
- Median secretion value IFN-γ ([1]; HLA-DRB1 allele *0404): 2.8 pg/mL
- Median secretion value IFN-γ ([1]; HLA-DRB1 allele *0407): 8.4 pg/mL
- Median secretion value IFN-γ ([1]; HLA-DRB1 allele *0701): -1.1 pg/mL
- Median secretion value IFN-γ ([1]; HLA-DRB1 allele *0801): 4.1 pg/mL
- Median secretion value IFN-γ ([1]; HLA-DRB1 allele *0901): 3.1 pg/mL
- Median secretion value IFN-γ ([1]; HLA-DRB1 allele *1001): -1.8 pg/mL
- Median secretion value IFN-γ ([1]; HLA-DRB1 allele *1101): -4.4 pg/mL
- Median secretion value IFN-γ ([1]; HLA-DRB1 allele *1103): 3.0 pg/mL
- Median secretion value IFN-γ ([1]; HLA-DRB1 allele *1104): 3.1 pg/mL
- Median secretion value IFN-γ ([1]; HLA-DRB1 allele *1201): -4.5 pg/mL
- Median secretion value IFN-γ ([1]; HLA-DRB1 allele *1301): 2.2 pg/mL
- Median secretion value IFN-γ ([1]; HLA-DRB1 allele *1302): -1.9 pg/mL
- Median secretion value IFN-γ ([1]; HLA-DRB1 allele *1303): 13.1 pg/mL
- Median secretion value IFN-γ ([1]; HLA-DRB1 allele *1401): 0.2 pg/mL
- Median secretion value IFN-γ ([1]; HLA-DRB1 allele *1501): 4.1 pg/mL
- Median secretion value IFN-γ ([1]; HLA-DRB1 allele *03011): 9.1 pg/mL
- Median secretion value IFN-γ ([1]; Overall (281)): 1.9 pg/mL
- MV-P IFN-γ responders who also produced IFN-γ to the peptide ([1]; among the 157 subjects who responded to the MV-P peptide): 21%
- MV IFN-γ responders who also produced IFN-γ to the peptide ([1]; among the 185 subjects who responded to MV): 21.1%
- IL-4 % Response (>10 pg/mL) ([2]; 281 subjects, peptides 10 μg/well, MV moi 0.1, 6 days): 23.1%
- IL-4 Median level [2, 5]: 2.8 pg/mL
- Median secretion value IL-4 ([2]; All other HLA-DRB1 alleles): -0.5 pg/mL
- Median secretion value IL-4 ([2]; HLA-DRB1 allele *0101): 4.3 pg/mL
- Median secretion value IL-4 ([2]; HLA-DRB1 allele *0102): 4.6 pg/mL
- Median secretion value IL-4 ([2]; HLA-DRB1 allele *0103): 1.3 pg/mL
- Median secretion value IL-4 ([2]; HLA-DRB1 allele *0301): 2.8 pg/mL
- Median secretion value IL-4 ([2]; HLA-DRB1 allele *0401): 4.3 pg/mL
- Median secretion value IL-4 ([2]; HLA-DRB1 allele *0402): -1.0 pg/mL
- Median secretion value IL-4 ([2]; HLA-DRB1 allele *0404): 0.0 pg/mL
- Median secretion value IL-4 ([2]; HLA-DRB1 allele *0407): 4.6 pg/mL
- Median secretion value IL-4 ([2]; HLA-DRB1 allele *0701): 1.7 pg/mL
- Median secretion value IL-4 ([2]; HLA-DRB1 allele *0801): 1.7 pg/mL
- Median secretion value IL-4 ([2]; HLA-DRB1 allele *0901): -1.6 pg/mL
- Median secretion value IL-4 ([2]; HLA-DRB1 allele *1001): 2.1 pg/mL
- Median secretion value IL-4 ([2]; HLA-DRB1 allele *1101): 4.4 pg/mL
- Median secretion value IL-4 ([2]; HLA-DRB1 allele *1103): 15.5 pg/mL
- Median secretion value IL-4 ([2]; HLA-DRB1 allele *1104): 4.4 pg/mL
- Median secretion value IL-4 ([2]; HLA-DRB1 allele *1201): 5.4 pg/mL
- Median secretion value IL-4 ([2]; HLA-DRB1 allele *1301): 3.6 pg/mL
- Median secretion value IL-4 ([2]; HLA-DRB1 allele *1302): 2.2 pg/mL
- Median secretion value IL-4 ([2]; HLA-DRB1 allele *1303): -12.9 pg/mL
- Median secretion value IL-4 ([2]; HLA-DRB1 allele *1401): 3.7 pg/mL
- Median secretion value IL-4 ([2]; HLA-DRB1 allele *1501): 3.2 pg/mL
- Median secretion value IL-4 ([2]; HLA-DRB1 allele *03011): 1.7 pg/mL
- Median secretion value IL-4 ([2]; Overall (281)): 2.8 pg/mL
- MV-P IL-4 responders in whom peptide-specific IL-4 responses were also detected ([2]; among the 54 subjects who responded to the MV-P peptide): half
- MV IL-4 responders who also responded to the peptide ([2]; among the 143 subjects with IL-4 production from MV-stimulated PBMC): 28.7%

Molecule: MV-F: randomly chosen 14 amino acid control peptide of the MV F protein (PLRHQATTASSTKP) [reference compound]
- proliferation in immunized healthy subjects ([3]; irrelevant control peptide, data not shown): little or no proliferation
- subjects with stimulation index greater than 2 (positive lymphoproliferative response) [4]: 11%
- stimulation index, median [4]: 1
- stimulation index, range [4]: 0-3

Molecule: CC[C@H](C)[C@H](NC(=O)[C@H](CCC(=O)O)NC(=O)CNC(=O)CNC(=O)[C@H](CCC(=O)O)NC(=O)[C@H](C)NC(=O)[C@@H](NC(=O)[C@H](CCC(=O)O)NC(=O)[C@@H](NC(=O)[C@H](CC(=O)O)NC(=O)[C@H](CO)NC(=O)[C@H](C)N)C(C)C)[C@@H](C)O)C(=O)N[C@@H](Cc1c[nH]cn1)C(=O)N[C@@H](CCCCN)C(=O)N[C@@H](CC(C)C)C(=O)N[C@@H](CC(C)C)C(=O)N[C@@H](CCCNC(=N)N)C(=O)N[C@@H](CC(C)C)C(=O)N[C@@H](CCC(N)=O)C(=O)O [MV-P2]
- subjects with stimulation index greater than 3.0 (recognized) ([3]; 95 subjects): 5%
- stimulation index, median [3, 6]: 1.2
- stimulation index, range [3, 6]: 0.5-16.2
- median cpm value, lymphoproliferative assay ([3]; 95 subjects, peptides 20 μg/ml, live attenuated MV 50 PFU/well, 3 days): 359 cpm
- subjects with stimulation index greater than 2 (positive lymphoproliferative response) [4]: 17%
- stimulation index, median [4]: 1.2
- stimulation index, range [4]: 0.4-16.2
- MV-P1 responders who also responded to the peptide ([4]; among the 52 subjects who responded to the MV-P1 peptide): 23%
